Data as given in patent publication US20210045385A1, “PYRIDAZINONE-SUBSTITUTED KETOXIMES AS HERBICIDES” (FMC Corporation, priority 2018, published 2021).

Key:
Type in all cases: in vivo
[1] = system: Italian ryegrass (Lolium mutiflorum); experiment: Test C preemergence, visual plant response rating; conditions: Test C, 0 is no effect, 100 is complete control
Outline: (§1)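 Visual injury on a 0 (no effect) to 100 (complete control) scale versus untreated controls, scored approximately 10 d after treatment under greenhouse conditions. Treatments used surfactant-containing non-phytotoxic solvent formulations, sprayed onto loam–sand soil preemergence or onto one- to two-leaf plants 2–10 cm tall postemergence.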

[2] = system: barnyardgrass (Echinochloa crus-galli); experiment: Test C preemergence, visual plant response rating; conditions: Test C, 0 is no effect, 100 is complete control
Outline: as §1

[3] = system: foxtail, giant (giant foxtail, Setaria faberi); experiment: Test C preemergence, visual plant response rating; conditions: Test C, 0 is no effect, 100 is complete control
Outline: as §1

[4] = system: kochia (Bassia scoparia); experiment: Test C preemergence, visual plant response rating; conditions: Test C, 0 is no effect, 100 is complete control
Outline: as §1

[5] = system: pigweed (Amaranthus retroflexus); experiment: Test C preemergence, visual plant response rating; conditions: Test C, 0 is no effect, 100 is complete control
Outline: as §1

[6] = system: Italian ryegrass (Lolium mutiflorum); experiment: Test C postemergence, visual plant response rating
Source text: (§2) Seeds of plant species selected from barnyardgrass (Echinochloa crus-galli), kochia (Bassia scoparia), ragweed (common ragweed, Ambrosia artemisiifolia), Italian ryegrass (Lolium mutiflorum), foxtail, giant (giant foxtail, Setaria faberi), foxtail, green (green foxtail, Setaria viridis), and pigweed (Amaranthus retroflexus) were planted into a blend of loam soil and sand and treated preemergence with a directed soil spray using test chemicals formulated in anon-phytotoxic solvent mixture which included a surfactant.
(§3) At the same time, plants selected from these weed species and also wheat (Triticum aestivum), corn (Zea mays), blackgrass (Alopecurus myosuroides), and galium (catchweed bedstraw, Galium aparine) were planted in pots containing the same blend of loam soil and sand and treated with post emergence applications of test chemicals formulated in the same manner. Plants ranged in height from 2 to 10 cm and were in the one- to two-leaf stage for the postemergence treatment. Treated plants and untreated controls were maintained in a greenhouse for approximately 10 d, after which time all treated plants were compared to untreated controls and visually evaluated for injury. Plant response ratings, summarized in Table C, are based on a 0 to 100 scale where 0 is no effect and 100 is complete control. A dash (-)response means no test result.

[7] = system: barnyardgrass (Echinochloa crus-galli); experiment: Test C postemergence, visual plant response rating
Source text: as §2, §3

[8] = system: blackgrass (Alopecurus myosuroides); experiment: Test C postemergence, visual plant response rating
Source text: as §2, §3

[9] = system: corn (Zea mays); experiment: Test C postemergence, visual plant response rating
Source text: as §2, §3

[10] = system: foxtail, giant (giant foxtail, Setaria faberi); experiment: Test C postemergence, visual plant response rating
Source text: as §2, §3

[11] = system: galium (catchweed bedstraw, Galium aparine); experiment: Test C postemergence, visual plant response rating
Source text: as §2, §3

[12] = system: kochia (Bassia scoparia); experiment: Test C postemergence, visual plant response rating
Source text: as §2, §3

[13] = system: pigweed (Amaranthus retroflexus); experiment: Test C postemergence, visual plant response rating
Source text: as §2, §3

[14] = system: ragweed (common ragweed, Ambrosia artemisiifolia); experiment: Test C postemergence, visual plant response rating
Source text: as §2, §3

[15] = system: wheat (Triticum aestivum); experiment: Test C postemergence, visual plant response rating
Source text: as §2, §3

[16] = system: barnyardgrass (Echinochloa crus-galli); experiment: Test D flooded paddy test, visual plant response rating; conditions: 250 g ai/ha, scale 0 to 100 (0 no effect, 100 complete control), 13 to 15 d
Method: (§4) Plant species in the flooded paddy test selected from rice (Oryza sativa), sedge umbrella (small-flower umbrella sedge, Cyperus difformis) duck salad (Heteranthera limosa), and barnyardgrass (Echinochloa crus-galli) were grown to the 2-leaf stage for testing. At time of treatment, test pots were flooded to 3 cm above the soil surface, treated by application of test compounds directly to the paddy water, and then maintained at that water depth for the duration of the test. Treated plants and controls were maintained in a greenhouse for 13 to 15 d, after which time all species were compared to controls and visually evaluated. Plant response ratings, summarized in Table D, are based on a scale of 0 to 100 where 0 is no effect and 100 is complete control. A dash (-) response means no test result.

[17] = system: duck salad (Heteranthera limosa); experiment: as above; conditions: 250 g ai/ha, scale 0 to 100 (0 no effect, 100 complete control), 13 to 15 d
Method: as §4

[18] = system: rice (Oryza sativa); experiment: as above; conditions: 250 g ai/ha, scale 0 to 100 (0 no effect, 100 complete control), 13 to 15 d
Method: as §4

[19] = system: sedge umbrella (small-flower umbrella sedge, Cyperus difformis); experiment: as above; conditions: 250 g ai/ha, scale 0 to 100 (0 no effect, 100 complete control), 13 to 15 d
Method: as §4

[20] = Test C, postemergence, 125 g ai/ha

Which results are given for `CC(C)O/N=C(/c1c(O)c(Cl)nn(C)c1=O)c1cc(Br)cc2ccccc12` [Compound 232]?
Ryegrass, Italian plant response rating (0 to 100 scale) ([1]; 31 g ai/ha): 0; Ryegrass, Italian plant response rating (0 to 100 scale) ([1]; 125 g ai/ha): 0; Barnyardgrass plant response rating (0 to 100 scale) ([2]; 31 g ai/ha): 60; Barnyardgrass plant response rating (0 to 100 scale) ([2]; 125 g ai/ha): 100; Foxtail, Giant plant response rating (0 to 100 scale) ([3]; 31 g ai/ha): 70; Foxtail, Giant plant response rating (0 to 100 scale) ([3]; 125 g ai/ha): 100; Kochia plant response rating (0 to 100 scale) ([4]; 31 g ai/ha): 0; Kochia plant response rating (0 to 100 scale) ([4]; 125 g ai/ha): 10; Pigweed plant response rating (0 to 100 scale) ([5]; 31 g ai/ha): 70; Pigweed plant response rating (0 to 100 scale) ([5]; 125 g ai/ha): 90; Ryegrass, Italian plant response rating (0 to 100 scale) ([6]; Postemergence, 31 g ai/ha): 0; Ryegrass, Italian plant response rating (0 to 100 scale) [6, 20]: 0; Barnyardgrass plant response rating (0 to 100 scale) ([7]; Postemergence, 31 g ai/ha): 40; Barnyardgrass plant response rating (0 to 100 scale) [7, 20]: 90; Blackgrass plant response rating (0 to 100 scale) ([8]; Postemergence, 31 g ai/ha): 20; Blackgrass plant response rating (0 to 100 scale) [8, 20]: 50; Corn plant response rating (0 to 100 scale) ([9]; Postemergence, 31 g ai/ha): 0; Corn plant response rating (0 to 100 scale) [9, 20]: 10; Foxtail, Giant plant response rating (0 to 100 scale) ([10]; Postemergence, 31 g ai/ha): 60; Foxtail, Giant plant response rating (0 to 100 scale) [10, 20]: 80; Galium plant response rating (0 to 100 scale) ([11]; Postemergence, 31 g ai/ha): 80; Galium plant response rating (0 to 100 scale) [11, 20]: 100; Kochia plant response rating (0 to 100 scale) ([12]; Postemergence, 31 g ai/ha): 20; Kochia plant response rating (0 to 100 scale) [12, 20]: 50; Pigweed plant response rating (0 to 100 scale) ([13]; Postemergence, 31 g ai/ha): 70; Pigweed plant response rating (0 to 100 scale) [13, 20]: 90; Ragweed plant response rating (0 to 100 scale) ([14]; Postemergence, 31 g ai/ha): 100; Ragweed plant response rating (0 to 100 scale) [14, 20]: 100; Wheat plant response rating (0 to 100 scale) ([15]; Postemergence, 31 g ai/ha): 0; Wheat plant response rating (0 to 100 scale) [15, 20]: 0; Plant response rating, Barnyardgrass (Flood) [16]: 30; Plant response rating, Ducksalad (Flood) [17]: 30; Plant response rating, Rice (Flood) [18]: 0; Plant response rating, Sedge, Umbrella (Flood) [19]: 95

How did the “Ryegrass, Italian plant response rating (0 to 100 scale)” value (“Ryegrass, Italian plant response rating” below) ([1]; 31 g ai/ha) turn out when `C#CCO/N=C(\c1c(O)c(Cl)nn(C)c1=O)c1ccc(F)c2ccccc12` [Compound 220] was run?
The value was 30.

What about the “Ryegrass, Italian plant response rating” value ([1]; 125 g ai/ha) of the same molecule?
The value was 100.

What about the “Barnyardgrass plant response rating (0 to 100 scale)” value (shortened to “Barnyardgrass plant response rating”) ([2]; 31 g ai/ha) of the same molecule?
The value was 0.

And the “Barnyardgrass plant response rating” value ([2]; 125 g ai/ha)?
Its value is 90.

And the “Foxtail, Giant plant response rating (0 to 100 scale)” value (“Foxtail, Giant plant response rating” for short) ([3]; 31 g ai/ha)?
Its value is 20.

And the “Foxtail, Giant plant response rating” value ([3]; 125 g ai/ha)?
The value was 100.

And the “Kochia plant response rating (0 to 100 scale)” value (“Kochia plant response rating” for short) ([4]; 31 g ai/ha)?
The value was 0.

And the “Kochia plant response rating” value ([4]; 125 g ai/ha)?
The value was 60.

And the “Pigweed plant response rating (0 to 100 scale)” value (“Pigweed plant response rating” for short) ([5]; 31 g ai/ha)?
Its value is 30.

And the “Pigweed plant response rating” value ([5]; 125 g ai/ha)?
Its value is 100.

And the “Ryegrass, Italian plant response rating” value ([6]; Postemergence, 31 g ai/ha)?
The value was 70.

What about the “Ryegrass, Italian plant response rating” value [6, 20] of the same molecule?
The value was 100.

And the “Barnyardgrass plant response rating” value ([7]; Postemergence, 31 g ai/ha)?
Its value is 40.

And the “Barnyardgrass plant response rating” value [7, 20]?
The value was 80.

And the “Blackgrass plant response rating (0 to 100 scale)” value ([8]; Postemergence, 31 g ai/ha)?
Its value is 30.

What about the “Blackgrass plant response rating (0 to 100 scale)” value [8, 20] of the same molecule?
Its value is 80.

And the “Corn plant response rating (0 to 100 scale)” value ([9]; Postemergence, 31 g ai/ha)?
The value was 10.

And the “Corn plant response rating (0 to 100 scale)” value [9, 20]?
The value was 40.

And the “Foxtail, Giant plant response rating” value ([10]; Postemergence, 31 g ai/ha)?
The value was 60.

And the “Foxtail, Giant plant response rating” value [10, 20]?
Its value is 100.

What about the “Galium plant response rating (0 to 100 scale)” value ([11]; Postemergence, 31 g ai/ha) of the same molecule?
The value was 70.

And the “Galium plant response rating (0 to 100 scale)” value [11, 20]?
The value was 100.

And the “Kochia plant response rating” value ([12]; Postemergence, 31 g ai/ha)?
The value was 50.

And the “Kochia plant response rating” value [12, 20]?
Its value is 80.

What about the “Pigweed plant response rating” value ([13]; Postemergence, 31 g ai/ha) of the same molecule?
Its value is 80.

And the “Pigweed plant response rating” value [13, 20]?
The value was 100.

What about the “Ragweed plant response rating (0 to 100 scale)” value ([14]; Postemergence, 31 g ai/ha) of the same molecule?
The value was 60.

And the “Ragweed plant response rating (0 to 100 scale)” value [14, 20]?
Its value is 100.

And the “Wheat plant response rating (0 to 100 scale)” value ([15]; Postemergence, 31 g ai/ha)?
Its value is 40.

And the “Wheat plant response rating (0 to 100 scale)” value [15, 20]?
Its value is 90.

And the “Plant response rating, Barnyardgrass (Flood)” value [16]?
Its value is 0.

And the “Plant response rating, Ducksalad (Flood)” value [17]?
The value was 0.

And the “Plant response rating, Rice (Flood)” value [18]?
The value was 0.

What about the “Plant response rating, Sedge, Umbrella (Flood)” value [19] of the same molecule?
Its value is 0.
